In patent publication US20220411388A1, “SUBSTITUTED IMIDAZOLE CARBOXAMIDES AND THEIR USE IN THE TREATMENT OF MEDICAL DISORDERS” (Bial - R&D Investments, S.A., priority 2019, published 2022):
Converted amounts (≈) assume the structure as drawn.

What was measured:
acid ceramidase (hACR) = target: T1, acid ceramidase (hACR) (Homo sapiens, UniProt Q13510); assay: Acid ceramidase inhibition, biochemical fluorescent assay with cell lysates overexpressing acid ceramidase (substrate Rbm14-12); settings: cell lysate, 1 hr preincubation at RT, pH 4.5, Rbm14-12 6.3 μM; read-out: IC50 hACR
T1 construct: expressed in transfected cells
T1 sequence (Q13510 22-395): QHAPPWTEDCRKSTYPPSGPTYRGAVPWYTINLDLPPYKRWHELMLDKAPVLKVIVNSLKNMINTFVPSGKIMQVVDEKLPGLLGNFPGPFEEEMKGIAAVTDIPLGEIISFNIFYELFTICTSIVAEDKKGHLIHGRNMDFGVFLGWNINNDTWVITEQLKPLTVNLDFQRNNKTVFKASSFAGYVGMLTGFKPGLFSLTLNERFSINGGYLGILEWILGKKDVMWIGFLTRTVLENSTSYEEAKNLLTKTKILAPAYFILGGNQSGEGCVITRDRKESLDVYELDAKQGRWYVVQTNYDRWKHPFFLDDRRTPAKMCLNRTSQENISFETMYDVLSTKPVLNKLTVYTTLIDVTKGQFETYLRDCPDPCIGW
Summary of the method: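 Enzyme source was lysate from cells overexpressing acid ceramidase, 10 µg protein per reaction. Compounds were preincubated 1 h at RT in 25 mM NaAc, 100 mM NaCl, pH 4.5.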

[1] = Compound solubility in water; format: physicochemical

Compound | IC50 (acid ceramidase (hACR)) [nM] | solubility [1] [µg/mL] | Compound Solubility in Water [1] [µg/mL]
COc1nc(C)cn1C(=O)NCC#CC(C)C [Example 180, 2-Methoxy-4-methyl-N-(4-methylpent-2-yn-1-yl)-1H-imidazole-1-carboxamide] | < 200 | 17 (≈ 72.3 µM) | –
CC(C)(CNC(=O)n1cnc(-c2cccnc2)c1)c1ccccc1 [Example 13, N-(2-Methyl-2-phenylpropyl)-4-(pyridin-3-yl)-1H-imidazole-1-carboxamide] | < 200 | 1.9 (≈ 5.93 µM) | –
COc1nc(C(C)(C)C)cn1C(=O)NC1CCCC(F)(F)C1 (centres unmarked) [Example 99, 4-(tert-Butyl)-N-(3,3-difluorocyclohexyl)-2-methoxy-1H-imidazole-1-carboxamide] | > 1000 | 14 (≈ 44.4 µM) | –
CC(C)CCNC(=O)n1cnc(C2CCCN(C)C2)c1 (centres unmarked) [Example 47, N-iso-Pentyl-4-(1-methylpiperidin-3-yl)-1H-imidazole-1-carboxamide] | 200 to 1000 | 32.2 (≈ 116 µM) | –
COc1nc(C2CCCC2)cn1C(=O)NCCCOc1ccccc1 [Example 105, 4-Cyclopentyl-2-methoxy-N-(3-phenoxypropyl)-1H-imidazole-1-carboxamide] | < 200 | 14 (≈ 40.8 µM) | –
COc1nc(-c2ccccc2)cn1C(=O)NCCc1ccccc1 [Example 8, 2-Methoxy-N-phenethyl-4-phenyl-1H-imidazole-1-carboxamide] | 200 to 1000 | 0.1 (≈ 0.311 µM) | –
COc1nc(C)cn1C(=O)NCCCc1ccccc1 [Example 141, 2-Methoxy-4-methyl-N-(3-phenylpropyl)-1H-imidazole-1-carboxamide] | < 200 | 24 (≈ 87.8 µM) | –
COc1nc(Cl)cn1C(=O)NC1CC1 [Example 189, 4-Chloro-N-cyclopropyl-2-methoxy-1H-imidazole-1-carboxamide] | > 1000 | 26 (≈ 121 µM) | –
CC(CNC(=O)n1cnc(-c2cccnc2)c1)Cc1ccccc1 (centres unmarked) [Example 15, N-(2-Methyl-3-phenylpropyl)-4-(pyridin-3-yl)-1H-imidazole-1-carboxamide] | < 200 | 16.1 (≈ 50.3 µM) | –
COc1nc(-c2cccnc2N2CCN(C)CC2)cn1C(=O)NCC#CC(C)C [Example 194, 2-Methoxy-N-(4-methylpent-2-yn-1-yl)-4-(2-(4-methylpiperazin-1-yl)pyridin-3-yl)-1H-imidazole-1-carboxamide] | > 1000 | 45 (≈ 113 µM) | –
COc1nc(C2(C)CCOCC2)cn1C(=O)NCCC1CC1 [Example 104, N-(2-Cyclopropylethyl)-2-methoxy-4-(4-methyltetrahydro-2H-pyran-4-yl)-1H-imidazole-1-carboxamide] | 200 to 1000 | 28 (≈ 91.1 µM) | –
O=C(NCCC1CC1)n1cnc(-c2ccns2)c1 [Example 72, N-(2-Cyclopropylethyl)-4-(iso-thiazol-5-yl)-1H-imidazole-1-carboxamide] | 200 to 1000 | 22 (≈ 83.9 µM) | –
CC(C)CCCCNC(=O)n1cnc(-c2cccnc2)c1 [Example 39, N-(5-Methylhexyl)-4-(pyridin-3-yl)-1H-imidazole-1-carboxamide] | < 200 | 2.7 (≈ 9.43 µM) | –
COc1nc(C)cn1C(=O)NCCCC(C)C [Example 142, 2-Methoxy-4-methyl-N-(4-methylpentyl)-1H-imidazole-1-carboxamide] | 200 to 1000 | 22 (≈ 91.9 µM) | –
CC(C)CCNC(=O)n1cnc(-c2ccncc2)c1 [Example 41, N-iso-Pentyl-4-(pyridin-4-yl)-1H-imidazole-1-carboxamide] | > 1000 | 22.1 (≈ 85.6 µM) | –
O=C(NCCCC(F)(F)F)n1ccnc1Oc1ccccc1 [Example 178, 2-Phenoxy-N-(4,4,4-trifluorobutyl)-1H-imidazole-1-carboxamide] | < 200 | 32 (≈ 102 µM) | –
COc1nc(C2CCC(F)(F)CC2)cn1C(=O)NCCC(C)C [Example 111, 4-(4,4-Difluorocyclohexyl)-N-iso-pentyl-2-methoxy-1H-imidazole-1-carboxamide] | 200 to 1000 | 15 (≈ 45.5 µM) | –
COc1nc(C)cn1C(=O)NCCC(C)C [Example 160, N-iso-Pentyl-2-methoxy-4-methyl-1H-imidazole-1-carboxamide] | < 200 | – | 13
CC(C)CCNC(=O)n1cc(C(C)(C)C)nc1Oc1ccc(F)cc1 [Example 116, 4-tert-Butyl-2-(4-fluorophenoxy)-N-iso-pentyl-1H-imidazole-1-carboxamide] | < 200 | 1 (≈ 2.88 µM) | –

Next, values leading:

IC50 (acid ceramidase (hACR)) [nM] | solubility [1] [µg/mL] | Compound Solubility in Water [1] [µg/mL] | Compound
< 200 | 3.1 (≈ 12 µM) | – | CC(C)CCNC(=O)n1cnc(-c2ccccc2)c1 [Example 27, N-iso-Pentyl-4-phenyl-1H-imidazole-1-carboxamide]
200 to 1000 | 15 (≈ 59.2 µM) | – | COc1nc(C(C)(C)C)cn1C(=O)NCC(C)C [Example 86, 4-(tert-Butyl)-N-iso-butyl-2-methoxy-1H-imidazole-1-carboxamide]
< 200 | 26 (≈ 89.9 µM) | – | COc1nc(C)cn1C(=O)NCCCOc1ccccc1 [Example 144, 2-Methoxy-4-methyl-N-(3-phenoxypropyl)-1H-imidazole-1-carboxamide]
< 200 | 24 (≈ 73.3 µM) | – | Cc1cn(C(=O)NCCCC(F)(F)F)c(Oc2ccccc2)n1 [Example 171, 4-Methyl-2-phenoxy-N-(4,4,4-trifluorobutyl)-1H-imidazole-1-carboxamide]
< 200 | 8 (≈ 22.6 µM) | – | O=C(NCCCC1(C(F)(F)F)CC1)n1ccnc1Oc1ccccc1 [Example 177, 2-Phenoxy-N-(3-(1-(trifluoromethyl)cyclopropyl)propyl)-1H-imidazole-1-carboxamide]
< 200 | 0.06 (≈ 0.195 µM) | – | O=C(NCCOc1ccccc1)n1cnc(-c2ccccc2)c1 [Example 18, N-(2-Phenoxyethyl)-4-phenyl-1H-imidazole-1-carboxamide]
200 to 1000 | 30 (≈ 104 µM) | – | COc1nc(C)cn1C(=O)NCCC1CCC(F)(F)C1 (centres unmarked) [Example 154, N-(2-(3,3-Difluorocyclopentyl)ethyl)-2-methoxy-4-methyl-1H-imidazole-1-carboxamide]
200 to 1000 | 17 (≈ 42 µM) | – | Cc1cn(C(=O)NC2CCC(F)(F)CC2)c(Oc2cccc(C3CN(C)C3)c2)n1 [Example 162, N-(4,4-Difluorocyclohexyl)-4-methyl-2-(3-(1-methylazetidin-3-yl)phenoxy)-1H-imidazole-1-carboxamide]
> 1000 | 12.6 (≈ 45.9 µM) | – | CC(C)OCCNC(=O)n1cnc(-c2cccnc2)c1 [Example 24, N-(2-iso-Propoxyethyl)-4-(pyridin-3-yl)-1H-imidazole-1-carboxamide]
> 1000 | 30 (≈ 110 µM) | – | COc1nc(C)cn1C(=O)NC1CCC(F)(F)CC1 [Example 152, N-(4,4-difluorocyclohexyl)-2-methoxy-4-methyl-1H-imidazole-1-carboxamide]
< 200 | 17 (≈ 51.6 µM) | – | COc1nc(C2CCOC2)cn1C(=O)NCCCc1ccccc1 (centres unmarked) [Example 118, 2-Methoxy-N-(3-phenylpropyl)-4-(tetrahydrofuran-3-yl)-1H-imidazole-1-carboxamide]
200 to 1000 | 25 (≈ 79.5 µM) | – | CC(C)Oc1nc(-c2cccnc2)cn1C(=O)NCCC1CC1 [Example 65, N-(2-Cyclopropylethyl)-2-isopropoxy-4-(pyridin-3-yl)-1H-imidazole-1-carboxamide]
